Test results published in patent US6403581B1, “Method of inhibition of farnesyl-protein transferase using substituted benz (cd) indol-2-imine and-amine derivatives” (American Cyanamid Company, priority 2000, dated 2002).
Where a name gives a salt, the structure may show the parent alone.

Experiments:
[1] = target: T1, farnesyl-protein transferase (FPTase) (Homo sapiens, UniProt P49354+P49356); assay: in vitro FPTase inhibition, H-Ras as substrate for farnesylation; assay type: biochemical; details: H-Ras used as substrate for farnesylation
Procedure: (§1) Enzyme test procedure: The FPTase inhibition in vitro assay was performed according to the method as described by James, G. L., Brown, M. S., and Goldstein, J. L., Methods in Enzymology, 1995, 255, 38-46; and Garcia, M. A., et al., J. Biol. Chem., 1993, 268, 18415-18420.
(§2) Materials—Purified FPTase (Moomaw, J. F. and Casey, P. J., J. Biol. Chem., 1992, 267, 17438-17443), purified His6-Ras, inhibitor compounds at 10 mg/ml or 10 mM in 100% DMSO, ^3H-FPP (50,000 dpm/pmol) Amersham, TCA/SDS (6%/2%), TCA (6%), Glass fiber filters ([…]), vacuum manifold or 96 well filtration plates.
(§3) Methods—1. Dilute FPTase inhibitors from stock solutions to 2.5× in 2.5% DMSO, 10 mM DTT, 0.5% octyl-B-glucoside. 2. Solution #1 is added to FPTase reaction in a volume of […]. 3. Standard reaction mix, […], contains 50 mM Tris (7.5),[…], 3 mM MgCl2, 20 mM KCl, 5 mM DTT, 0.2% octyl-B-glucoside, 1% DMSO, […], 10 ng FPTase, and various concentrations of FPTase inhibitors. 4. Incubate for 30-90 min at 25° C. 5. Stop reactions with TCA/SDS (6%/2%), hold at 4° C. for 45-60 min. 6. Filter by manifold or 96 well plate, wash filter 3-5× with TCA (6%). 7. Add scintillant to filters, measure ^3H-FPP incorporation into Ras protein.
(§4) Analysis of Results—Percent inhibition by test compounds is determined by the following:
(§5) (cpm from precipitated Ras with test compounds)−(background cpm)×100=% inhibition.
(§6) (cpm from precipitated Ras without test compounds)−(background cpm)

[2] = target: T1, farnesyl-protein transferase (FPTase); assay: in vitro FPTase inhibition, K-Ras as substrate for farnesylation; assay type: biochemical; details: K-Ras used as substrate for farnesylation
Procedure: as §1, §2, §3, §4, §5, §6

Row | IC50 [1] [nM] | IC50 [2] [nM] | melting point [°C] | Molecule
1 | 1200 | 8000 |  | CCCCCCCCN(CCCn1ccnc1)C1=Nc2cccc3cccc1c23 [Example 1, N-[3-(1H-Imidazol-1-yl)-propyl]-N-octyl-benz[cd]indol-2-amine, Fumarate (1:2)]
2 | 6700 |  |  | Ic1ccc2c3c(cccc13)C(NCCCCn1ccnc1)=N2 [Example 2, N-[4-(1H-Imidazol-1-yl)-butyl]-6-iodo-benz[cd]indol-2-amine]
3 | 2500 | > 10000 |  | CN1C(=NCCCn2ccnc2)c2cccc3c(CO)ccc1c23 [Example 3, 1,2-Dihydro-2-[[3-(1H-imidazol-1-yl)propyl]imino]-1-methyl-benz[cd]indole-6-methanol, Fumarate (1:1)]
4 | 2800 | > 10000 |  | c1ccc(CN2C(=NCCCCn3ccnc3)c3cccc4cccc2c34)cc1 [Example 4, N-[1-(Phenylmethyl)benz[cd]indol-2(1H)-ylidene]-1H-imidazole-1-butanamine, Fumarate (1:2)]
5 | 320 | 4800 |  | N#CCCCCN1C(=NCCCn2ccnc2)c2cccc3cccc1c23 [Example 5, 2-[[3-(1H-Imidazol-1-yl)propyl]imino]-benz[cd]indole-1(2H)-pentanenitrile]
6 | 2250 | > 10000 |  | c1cc2c3c(cccc3c1)N(CCCN1C(=NCCCn3ccnc3)c3cccc4cccc1c34)C2=NCCCn1ccnc1 [Example 6, N,N′-[1,3-Propanediylbis(benz[cd]indol-1(2H)-yl-2-ylidene)]bis-1H-imidazole-1-propanamine]
7 | 1800 | > 10000 |  | CCCCCCN1C(=NCCCn2ccnc2)c2cccc3cccc1c23 [Example 7, N-(1-Hexylbenz[cd]indol-2(1H)-ylidene)-1H-imidazole-1-propanamine, Fumarate (1:2)]
8 | 2000 | > 10000 |  | c1cncc(CN2C(=NCCCn3ccnc3)c3cccc4cccc2c34)c1 [Example 9, N-[1-(3-Pyridinylmethyl)benz[cd]indol-2(1H)-ylidene]-1H-imidazole-1-propanamine]
9 | 650 |  |  | c1ccc(CN2C(=NCCCn3ccnc3)c3cccc4cccc2c34)cc1 [Example 10, N-[1-(Phenylmethyl)benz[cd]indol-2(1H)-ylidene]-1H-imidazole-1-propanamine, Fumarate (1:2)]
10 | 600 | 9500 |  | c1ccc(CCCN2C(=NCCCn3ccnc3)c3cccc4cccc2c34)cc1 [Example 11, N-[1-(3-Phenylpropyl)benz[cd]indol-2(1H)-ylidene]-1H-imidazole-1-propanamine, Fumarate (1:2)]
11 | 1500 |  |  | c1ccc(OCCCN2C(=NCCCn3ccnc3)c3cccc4cccc2c34)cc1 [Example 12, N-[1-(3-Phenoxypropyl)benz[cd]indol-2-(1H)-ylidene]-1H-imidazole-1-propanamine, Dihydrochloride]
12 | 400 | > 10000 |  | COc1cccc(CN2C(=NCCCn3ccnc3)c3cccc4cccc2c34)c1 [Example 13, N-[1-[(3-Methoxyphenyl)methyl]benz[cd]indol-2(1H)-ylidene]-1H-imidazole-1-propanamine]
13 | 200 | 8500 |  | FC(F)(F)c1cccc(CN2C(=NCCCn3ccnc3)c3cccc4cccc2c34)c1 [Example 14, N-[1-[[3-(Trifluoromethyl)phenyl]methyl]benz[cd]indol-2(1H)-ylidene]-1H-imidazole-1-propanamine]
14 | 180 |  |  | Clc1ccc(CN2C(=NCCCn3ccnc3)c3cccc4cccc2c34)cc1 [Example 15, N-[1-[(4-Chlorophenyl)methyl]benz[cd]indol-2(1H)-ylidene]-1H-imidazole-1-propanamine]
15 | 2500 | > 10000 |  | c1ccc(N2C(=NCCCn3ccnc3)c3cccc4cccc2c34)cc1 [Example 16, N-(1-Phenylbenz[cd]indol-2(1H)-ylidene)-1H-imidazole-1-propanamine]
16 | 2000 | > 10000 |  | c1cc2c3c(cccc3c1)C(N1CCC(Cn3ccnc3)CC1)=N2 [Example 17, 2-[4-(1H-Imidazol-1-ylmethyl)-1-piperidinyl]-benz[cd]indole, Monohydriodide]
17 | 800 | > 10000 |  | Clc1ccc2c3c(cccc13)C(=NCCCn1ccnc1)N2Cc1ccccc1 [Example 18, N-[6-Chloro-1-(phenyl-methyl)benz[cd]indol-2(1H)-ylidene]-1H-imidazole-1-propanamine]
18 | 100 | > 10000 |  | Clc1ccc2c3c(cccc13)C(=NCCc1cccnc1)N2Cc1ccccc1 [Example 19, N-[6-Chloro-1-(phenylmethyl)benz[cd]indol-2(1H)-ylidene]-3-pyridinethanamine]
19 | 900 |  |  | Clc1ccc(CN2C(=NCCCn3ccnc3)c3cccc4c(I)ccc2c34)cc1 [Example 20, N-(1-(4-Chlorobenzyl)-6-iodobenzo[cd]indol-2-(1H)-ylidene)-3-(1H-imidazol-1-yl)-1-propanamine]
20 |  |  | 185 to 188 | Ic1ccc2c3c(cccc13)C(=NCCCn1ccnc1)N2 [Example 21, 3-(1H-Imidazol-1-yl)-N-(6-iodobenzo[cd]indol-2(1H)-ylidene)-1-propanamine]
21 |  |  | 160 to 163 | Ic1ccc2c3c(cccc13)C(=NCc1ccccc1)N2 [Example 22, N-Benzyl-N-(6-iodobenzo[cd]indol-2(1H)-ylidene)amine]

Row | Molecule | IC50 [1] [nM] | IC50 [2] [nM] | melting point [°C]
22 | N-(1-Hexylbenz[cd]indol-2(1H)-ylidene)-3-pyridinebutanamine, Fumarate (2:3) [Example 8] | 2400 | > 10000 | 
